ChEMBL document CHEMBL6182930, “Discovery of TBK1Molecular Glue Degraders as a Potential Strategy for the Treatment of Autosomal Dominant Polycystic Kidney Disease (ADPKD)” (J Med Chem, 2025)
The source made the active and inactive calls. The calls are words filed in the database; no cut-off is given here.

What was measured:
Mus musculus [1] = test: Anti-inflammatory activity in PKD1 knockout ADPKD (Pkd1 flox/flox; Ksp-Cre) C57BL/6 mouse model assessed as decrease in IL-6 level in kidney at 5 mg/kg, SC administered from postnatal day 6 and measured on postnatal day 12 by RT-qPCR analysis; type: functional, organism-based; conditions: time 7.0 day
[2] = target: T1, E3 ubiquitin-protein ligase RNF126/Serine/threonine-protein kinase TBK1 (Homo sapiens, UniProt Q9UHD2+Q9BV68); test: Molecular glue activity at RNF126/TBK1 in HEK293T cells assessed as induction of TBK1 degradation at 1 uM measured after 24 hrs by Western blot analysis; type: cell-based
Target sequence in this assay (Q9BV68 2-311 partner limits assumed, one chain of several): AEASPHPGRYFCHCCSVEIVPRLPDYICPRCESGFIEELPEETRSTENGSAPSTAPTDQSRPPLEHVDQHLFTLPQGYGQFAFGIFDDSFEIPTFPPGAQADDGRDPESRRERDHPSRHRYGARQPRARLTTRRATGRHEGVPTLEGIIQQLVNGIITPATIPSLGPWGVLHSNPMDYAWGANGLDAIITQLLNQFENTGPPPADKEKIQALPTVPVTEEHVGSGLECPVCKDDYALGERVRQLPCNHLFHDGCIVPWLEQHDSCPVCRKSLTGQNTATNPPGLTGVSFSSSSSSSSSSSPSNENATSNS

[3] = Clearance in rat at 2 mg/kg, iv measured after 24 hrs by LC-MS/MS analysis; type: ADME, organism-based; conditions: in vivo
[4] = target: T1, E3 ubiquitin-protein ligase RNF126/Serine/threonine-protein kinase TBK1; test: Molecular glue activity at RNF126/TBK1 in human A549 cells assessed as induction of TBK1 degradation at 1 uM pretreated with MLN4924 for 2 hrs followed by compound addition and measured after 16 hrs by Western blot analysis; type: cell-based
Target sequence in this assay (Q9BV68 2-311 partner limits assumed, one chain of several): as above

Mus musculus [5] = test: Inhibition of renal cystogenesis in PKD1 knockout ADPKD (Pkd1 flox/flox; Ksp-Cre) C57BL/6 mouse model assessed as reduction in relative kidney size at 5 mg/kg, SC administered from postnatal day 6 and measured on postnatal day 12; type: functional, organism-based; conditions: time 7.0 day
[6] = AUC (0 to infinity) in rat at 10 mg/kg, po measured after 24 hrs by LC-MS/MS analysis; type: ADME, organism-based; conditions: in vivo
[7] = target: T1, E3 ubiquitin-protein ligase RNF126/Serine/threonine-protein kinase TBK1; test: Molecular glue activity at RNF126/TBK1 in HEK293T cells assessed as induction of TBK1 degradation by measuring maximal efficacy at 10 to 1000 nM incubated for 16 hrs by Western blot analysis relative to control; type: cell-based; conditions: dose 10-1000 nM
Target sequence in this assay (Q9BV68 2-311 partner limits assumed, one chain of several): as above

[8] = target: T1, E3 ubiquitin-protein ligase RNF126/Serine/threonine-protein kinase TBK1; test: Molecular glue activity at RNF126/TBK1 in human A549 cells assessed as induction of TBK1 degradation at 1 uM incubated for 16 hrs by Western blot analysis; type: cell-based
Target sequence in this assay (Q9BV68 2-311 partner limits assumed, one chain of several): as above

Mus musculus [9] = test: Anti-inflammatory activity in PKD1 knockout ADPKD (Pkd1 flox/flox; Ksp-Cre) C57BL/6 mouse model assessed as decrease in TNF-alpha level in kidney at 5 mg/kg, SC administered from postnatal day 6 and measured on postnatal day 12 by RT-qPCR analysis; type: functional, organism-based; conditions: time 7.0 day
[10] = Cmax in rat at 10 mg/kg, po measured after 24 hrs by LC-MS/MS analysis; type: ADME, organism-based; conditions: in vivo
Mus musculus [11] = test: Anti-inflammatory activity in PKD1 knockout ADPKD (Pkd1 flox/flox; Ksp-Cre) C57BL/6 mouse model assessed as decrease in Ccl2 level in kidney at 5 mg/kg, SC administered from postnatal day 6 and measured on postnatal day 12 by RT-qPCR analysis; type: functional, organism-based; conditions: time 7.0 day
Mus musculus [12] = test: Anti-inflammatory activity in PKD1 knockout ADPKD (Pkd1 flox/flox; Ksp-Cre) C57BL/6 mouse model assessed as decrease in IL-1beta level in kidney at 5 mg/kg, SC administered from postnatal day 6 and measured on postnatal day 12 by RT-qPCR analysis; type: functional, organism-based; conditions: time 7.0 day
MDCK = test: Inhibition of cystogenesis in forskolin-stimulated MDCK cells assessed as reduction in cyst growth at 100 nM by imaging analysis; type: functional, cell-based; conditions: Canis lupus familiaris, time 8.0 day
[13] = Tmax in rat at 2 mg/kg, iv measured after 24 hrs by LC-MS/MS analysis; type: ADME, organism-based; conditions: in vivo
[14] = target: T1, E3 ubiquitin-protein ligase RNF126/Serine/threonine-protein kinase TBK1; test: Molecular glue activity at RNF126/TBK1 in human A549 cells assessed as induction of TBK1 degradation at 1 uM measured after 6 hrs by Western blot analysis; type: cell-based
Target sequence in this assay (Q9BV68 2-311 partner limits assumed, one chain of several): as above

Mus musculus [15] = test: In vivo molecular glue activity at RNF126/TBK1 in PKD1 knockout ADPKD (Pkd1 flox/flox; Ksp-Cre) C57BL/6 mouse model assessed as decrease in phosphorylated STING level in kidney at 5 mg/kg, SC administered from postnatal day 6 and measured on postnatal day 12 by Western blot analysis; type: functional, organism-based; conditions: time 7.0 day
[16] = target: T2, Serine/threonine-protein kinase TBK1 (Homo sapiens, UniProt Q9UHD2); test: Inhibition of TBK1-dependent SEAP reporter gene expression in LPS-stimulated human THP1-Blue ISG cells incubated for 24 hrs by QUANTI-Blue reagent based analysis; type: cell-based
T2 sequence (Q9UHD2 whole entry): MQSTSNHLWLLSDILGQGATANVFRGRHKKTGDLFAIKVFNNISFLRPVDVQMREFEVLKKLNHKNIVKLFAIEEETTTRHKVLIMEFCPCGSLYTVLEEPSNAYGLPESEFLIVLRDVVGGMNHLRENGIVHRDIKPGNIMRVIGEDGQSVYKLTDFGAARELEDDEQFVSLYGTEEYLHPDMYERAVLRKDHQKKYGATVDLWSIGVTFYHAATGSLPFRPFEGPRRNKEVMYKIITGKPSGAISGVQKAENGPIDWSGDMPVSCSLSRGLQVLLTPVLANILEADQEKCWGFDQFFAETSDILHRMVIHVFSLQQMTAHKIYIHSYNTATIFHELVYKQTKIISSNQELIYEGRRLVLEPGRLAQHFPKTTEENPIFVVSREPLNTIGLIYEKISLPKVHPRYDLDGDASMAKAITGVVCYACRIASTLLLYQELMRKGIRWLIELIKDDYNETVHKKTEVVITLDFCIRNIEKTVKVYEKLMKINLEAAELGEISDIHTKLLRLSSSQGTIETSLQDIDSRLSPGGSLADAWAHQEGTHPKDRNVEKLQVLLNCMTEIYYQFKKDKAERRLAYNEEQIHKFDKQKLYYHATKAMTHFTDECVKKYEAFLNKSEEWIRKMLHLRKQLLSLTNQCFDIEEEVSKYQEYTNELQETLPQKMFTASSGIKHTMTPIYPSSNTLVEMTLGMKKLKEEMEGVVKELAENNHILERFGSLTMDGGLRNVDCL

[17] = target: T1, E3 ubiquitin-protein ligase RNF126/Serine/threonine-protein kinase TBK1; test: Molecular glue activity at RNF126/TBK1 in HEK293T cells assessed as induction of TBK1 degradation at 1 uM pretreated with MLN4924 for 2 hrs followed by compound addition and measured after 16 hrs by Western blot analysis; type: cell-based
Target sequence in this assay (Q9BV68 2-311 partner limits assumed, one chain of several): as the sequence (Q9BV68 2-311 partner limits assumed, one chain of several) above

[18] = Half-life in rat at 10 mg/kg, po measured after 24 hrs by LC-MS/MS analysis; type: ADME, organism-based; conditions: in vivo
[19] = target: T1, E3 ubiquitin-protein ligase RNF126/Serine/threonine-protein kinase TBK1; test: Molecular glue activity at RNF126/TBK1 in human A549 cells assessed as induction of TBK1 degradation incubated for 16 hrs by Western blot analysis; type: cell-based
[20] = Tmax in rat at 10 mg/kg, po measured after 24 hrs by LC-MS/MS analysis; type: ADME, organism-based; conditions: in vivo
Mus musculus [21] = test: Inhibition of renal cystogenesis in PKD1 knockout ADPKD (Pkd1 flox/flox; Ksp-Cre) C57BL/6 mouse model assessed as reduction in renal cystic index at 5 mg/kg, SC administered from postnatal day 6 and measured on postnatal day 12 (reference value: 20.0 +/- 1.3 %); type: functional; parameters: scale not given: the % may be the effect or the level left; conditions: time 7 day
[22] = target: T1, E3 ubiquitin-protein ligase RNF126/Serine/threonine-protein kinase TBK1; test: Molecular glue activity at RNF126/TBK1 in HEK293T cells assessed as induction of TBK1 degradation at 1 uM measured after 6 hrs by Western blot analysis; type: cell-based
[23] = target: T1, E3 ubiquitin-protein ligase RNF126/Serine/threonine-protein kinase TBK1; test: Molecular glue activity at RNF126/TBK1 in HEK293T cells assessed as induction of TBK1 degradation at 1 uM by Western blot analysis; type: cell-based; conditions: time 2-24 hrs

- clearance [3]: 44.9 mL/min/kg
- AUC(0-inf) [6]: 0.14 µM·h
- Emax [7]: 91.9%
- Activity [8]: Active
- Cmax [10]: 70 nM
- Tmax [13]: 4.8 min
- IC50 [16]: 77.4 nM
- half-life [18]: 73.2 min
- Activity [19]: Dose-dependent-effect
- DC50 [19]: 360 nM
- Tmax [20]: 21.6 min
- Activity [23]: Time-dependent-effect
SMILES: COc1ccc(C(=O)/C=C/C(=O)N2CCN(CC3CCN(Cc4cccc(Nc5ncc6ccn(CCCNC(=O)C7CCC7)c6n5)c4)CC3)CC2)cc1
- Activity (Mus musculus [1]): Active
- Activity [2]: Active; Maximal Tbk1 Degradation Observed
- Activity [4]: Active; Degradation In Independent Of Crl-Related Pathway
- inhibition (Mus musculus [5]): Active
- Activity (Mus musculus [9]): Active
- Activity (Mus musculus [11]): Active
- Activity (Mus musculus [12]): Active
- inhibition (MDCK): Time-dependent-effect; Effect Observed Starting On Day 6
- Activity [14]: Active; Significant Reduction In Tbk1 Level Observed
- Activity (Mus musculus [15]): Active
- Activity [17]: Active; Degradation In Independent Of Crl-Related Pathway
- Activity (Mus musculus [21]): 14%
- Activity [22]: Active; Significant Reduction In Tbk1 Level Observed
